{
  "source": "patent US8617560B2",
  "about": "“Peptides for vaccination against human CMV” (priority 1999, dated 2013)",
  "origin": "cited, not measured here",
  "test_system": "cytomegaloviruses",
  "settings": "background statement, Lutz Schneider 1991",
  "data": [
    {"compound": "O=C(O)P(=O)(O)O", "note": "[Foscarnet]", "values": [
      {"measurement": "effect on cytomegaloviruses", "value": "virostatic effect"}
    ]}
  ]
}
